# Test results published in US9982242B2, “Protein complex capable of catalyzing asymmetric oxidation reaction and method for producing same” (SANYO FOODS CO., LTD., priority 2012, dated 2018).
# System: CLPC
# Conditions: for OP/% ee of (S)-2 with additive: additive 1.0 mM, CLPC 20 mg, rac-2 0.8 mM, 48 h; for effect of additive on CLPC activity: 1 mM
Compound,OP/% ee of (S)-2 with additive,effect of additive on CLPC activity
[Ca+2].[Cl-].[Cl-] [CaCl2],97.7 % ee,
O=S(=O)([O-])[O-].[Cu+2] [CuSO4],86.2 % ee,
O=C(O)CN(CCN(CC(=O)O)CC(=O)O)CC(=O)O [EDTA],,activity was completely lost
[Cl][Fe]([Cl])[Cl] [FeCl3],79.6 % ee,
O=S(=O)([O-])[O-].[Mg+2] [MgSO4],91.2 % ee,
[Cl][Mn][Cl] [MnCl2],80.4 % ee,
[Cl][Ni][Cl] [NiCl2],77.7 % ee,
[Cl-].[Cl-].[Zn+2] [ZnCl2],1.7 % ee,inhibitory activity was observed
c1cnc2c(c1)ccc1cccnc12 [o-phenanthroline],1.4 % ee,
